These results are taken from patent US11084800B2 (Achillion Pharmaceuticals, Inc., priority 2017, dated 2021).

Chain of Human Factor D (P00746 26-253): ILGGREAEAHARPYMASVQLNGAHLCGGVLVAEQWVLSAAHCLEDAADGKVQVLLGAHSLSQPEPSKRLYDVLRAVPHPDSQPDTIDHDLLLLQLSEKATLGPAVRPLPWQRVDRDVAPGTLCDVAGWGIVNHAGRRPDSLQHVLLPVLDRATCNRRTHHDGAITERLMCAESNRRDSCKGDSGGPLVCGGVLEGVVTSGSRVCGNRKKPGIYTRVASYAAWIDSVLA

One test has as its target Human Factor D (Homo sapiens (Human), UniProt P00746). Nature of the test: Human Factor D Assay. Format: biochemical. The following applies: Factor D inhibition, assay of Example 10; read-out: IC5 (Stars). The essentials:
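Serum-purified Factor D (80 nM final) preincubated 5 min at room temperature with compound in 50 mM Tris, 1 M NaCl, pH 7.5. Z-L-Lys-SBz and DTNB added at 100 μM each; A405 followed every 30 s for 30 min. IC50 from nonlinear regression of rates versus concentration.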
For `COCc1cc(Br)nc(NC(=O)[C@@H]2C[C@@]3(C)C[C@H]3N2C(=O)Cn2nc(C(C)=O)c3cc(-c4cnc(C)nc4)ccc32)c1` [Compound 546, (1R,3S,5R)-2-(2-(3-acetyl-5-(2-methylpyrimidin-5-yl)-1H-indazol-1-yl)acetyl)-N-(6-bromo-4-(methoxymethyl)pyridin-2-yl)-5-methyl-2-azabicyclo[3.1.0]hexane-3-carboxamide], the IC50 was less than 1000 nM. The same measure, in the same setting: as for `CC(=O)c1nn(CC(=O)N2[C@H](C(=O)Nc3cc(-c4ccccc4)cc(Br)n3)C[C@@]3(C)C[C@@H]23)c2ccc(-c3cnc(C)nc3)cc12` [Compound 547, (1R,3S,5R)-2-(2-(3-acetyl-5-(2-methylpyrimidin-5-yl)-1H-indazol-1-yl)acetyl)-N-(6-bromo-4-phenylpyridin-2-yl)-5-methyl-2-azabicyclo[3.1.0]hexane-3-carboxamide], the figure is less than 1000 nM; as for `CC(=O)c1nn(CC(=O)N2[C@H](C(=O)Nc3cc(CCc4ccccc4)cc(Br)n3)C[C@@]3(C)C[C@@H]23)c2ccc(-c3cnc(C)nc3)cc12` [Compound 548], less than 1000 nM. The same measure, in the same setting: the figure for `CCCCc1cc(Br)nc(NC(=O)[C@@H]2C[C@@]3(C)C[C@H]3N2C(=O)Cn2nc(C(C)=O)c3cc(-c4cnc(C)nc4)ccc32)c1` [Compound 549, (1R,3S,5R)-2-(2-(3-acetyl-5-(2-methylpyrimidin-5-yl)-1H-indazol-1-yl)acetyl)-N-(6-bromo-4-butylpyridin-2-yl)-5-methyl-2-azabicyclo[3.1.0]hexane-3-carboxamide] is less than 1000 nM; for `CC(=O)c1nn(CC(=O)N2[C@H](C(=O)Nc3cc(C(F)(F)F)cc(Br)n3)C[C@@]3(C)C[C@@H]23)c2ccc(-c3cnc(C)nc3)cc12` [Compound 550, (1R,3S,5R)-2-(2-(3-acetyl-5-(2-methylpyrimidin-5-yl)-1H-indazol-1-yl)acetyl)-N-(6-bromo-4-(trifluoromethyl)pyridin-2-yl)-5-methyl-2-azabicyclo[3.1.0]hexane-3-carboxamide] it is less than 1000 nM; for `CC(=O)c1nn(CC(=O)N2[C@H](C(=O)NCCC(C)(C)C)C[C@@]3(C)C[C@@H]23)c2ccc(-c3cnc(C)nc3)cc12` [Compound 552, (1R,3S,5R)-2-(2-(3-acetyl-5-(2-methylpyrimidin-5-yl)-1H-indazol-1-yl)acetyl)-N-(3,3-dimethylbutyl)-5-methyl-2-azabicyclo[3.1.0]hexane-3-carboxamide] it is less than 1000 nM. Still for that read-out and setting: as for `CC(=O)c1nn(CC(=O)N2[C@H](C(=O)N[C@@H](C)c3ccccc3)C[C@@]3(C)C[C@@H]23)c2ccc(-c3cnc(C)nc3)cc12` [Compound 553, (1R,3S,5R)-2-(2-(3-acetyl-5-(2-methylpyrimidin-5-yl)-1H-indazol-1-yl)acetyl)-5-methyl-N-((S)-1-phenylethyl)-2-azabicyclo[3.1.0]hexane-3-carboxamide], the figure is less than 1000 nM; as for `CC(=O)c1nn(CC(=O)N2[C@H](C(=O)N[C@@H](C)COC(F)(F)F)C[C@@]3(C)C[C@@H]23)c2ccc(-c3cnc(C)nc3)cc12` [Compound 554, (1R,3S,5R)-2-(2-(3-acetyl-5-(2-methylpyrimidin-5-yl)-1H-indazol-1-yl)acetyl)-5-methyl-N-((S)-1-(trifluoromethoxy)propan-2-yl)-2-azabicyclo[3.1.0]hexane-3-carboxamide], less than 1000 nM.

For `CC(=O)c1nn(CC(=O)N2[C@H](C(=O)Nc3cc(Cc4ccccc4)cc(Br)n3)C[C@@]3(C)C[C@@H]23)c2ccc(-c3cnc(C)nc3)cc12` [Compound 555, (1R,5R)-2-(2-(3-acetyl-5-(2-methylpyrimidin-5-yl)-1H-indazol-1-yl)acetyl)-N-(4-benzyl-6-bromopyridin-2-yl)-5-methyl-2-azabicyclo[3.1.0]hexane-3-carboxamide], the IC50 was less than 1000 nM. Still for that read-out and setting: as for `CC(=O)c1nn(CC(=O)N2[C@H](C(=O)Nc3cc(-c4ccccc4O)cc(Br)n3)C[C@@]3(C)C[C@@H]23)c2ccc(-c3cnc(C)nc3)cc12` [Compound 556, (1R,3S,5R)-2-(2-(3-acetyl-5-(2-methylpyrimidin-5-yl)-1H-indazol-1-yl)acetyl)-N-(6-bromo-4-(2-hydroxyphenyl)pyridin-2-yl)-5-methyl-2-azabicyclo[3.1.0]hexane-3-carboxamide], the figure is less than 1000 nM; as for `CC(=O)c1nn(CC(=O)N2[C@H](C(=O)Nc3cc(COCc4ccccc4)cc(Br)n3)C[C@@]3(C)C[C@@H]23)c2ccc(-c3cnc(C)nc3)cc12` [Compound 557, (1R,3S,5R)-2-(2-(3-acetyl-5-(2-methylpyrimidin-5-yl)-1H-indazol-1-yl)acetyl)-N-(4-6-bromopyridin-2-yl)-5-methyl-2-azabicyclo[3.1.0]hexane-3-carboxamide], less than 1000 nM. Still for that read-out and setting: the figure for `CC(=O)c1nn(CC(=O)N2[C@H](C(=O)N[C@H](C)c3ccccc3)C[C@@]3(C)C[C@@H]23)c2ccc(-c3cnc(C)nc3)cc12` [Compound 558, (1R,3S,5R)-2-(2-(3-acetyl-5-(2-methylpyrimidin-5-yl)-1H-indazol-1-yl)acetyl)-5-methyl-N-((R)-1-phenylethyl)-2-azabicyclo[3.1.0]hexane-3-carboxamide] is less than 1000 nM; for `CC(=O)c1nn(CC(=O)N2[C@H](C(=O)NC/C(F)=C(/C)c3ccccc3)C[C@@]3(C)C[C@@H]23)c2ccc(-c3cnc(C)nc3)cc12` [Compound 559, (1R,3S,5R)-2-(2-(3-acetyl-5-(2-methylpyrimidin-5-yl)-1H-indazol-1-yl)acetyl)-N-((E)-2-fluoro-3-phenylbut-2-en-1-yl)-5-methyl-2-azabicyclo[3.1.0]hexane-3-carboxamide] it is less than 1000 nM. The same measure, in the same setting: the figure for `CC(=O)c1cn(CC(=O)N2[C@H](C(=O)NC/C(F)=C(/C)c3ccccc3)C[C@@]3(C)C[C@@H]23)c2cnc(-c3cnc(C)nc3)cc12` [Compound 560] is less than 1000 nM. `CC(=O)c1nn(CC(=O)N2[C@H](C(=O)NC/C(F)=C(/C)c3ccccc3)C[C@@]3(C)C[C@@H]23)c2c(C)cc(-c3cnc(C)nc3)cc12` [Compound 561, (1R,3S,5R)-2-(2-(3-acetyl-7-methyl-5-(2 methylpyrimidin-5-yl)-1H-indazol-1-yl)acetyl)-N-((E)-2-fluoro-3-phenylbut-2-en-1-yl)-5-methyl-2-azabicyclo[3.1.0]hexane-3-carboxamide]: the IC50 is less than 1000 nM. For `Cc1ncc(-c2ccc3c(c2)c(C(=O)NC(C)C)nn3CC(=O)N2[C@H](C(=O)Nc3nc(Br)ccc3C)C[C@@]3(C)C[C@@H]23)cn1` [Compound 562, 1-(2-((1R,3S,5R)-3-((6-bromo-3-methylpyridin-2-yl)carbamoyl)-5-methyl-2-azabicyclo[3.1.0]hexan-2-yl)-2-oxoethyl)-N-isopropyl-5-(2-methylpyrimidin-5-yl)-1H-indazole-3-carboxamide], the IC50 lay within 1000 to 10000 nM.

Staying with this test, now noted: Table 8; Factor D 80 nM, substrate Z-L-Lys-SBz; read-out: IC50.
As for `CCC(C)NC(=O)c1nn(CC(=O)N2[C@H](C(=O)Nc3nc(Br)ccc3C)C[C@@]3(C)C[C@@H]23)c2ccc(-c3cnc(C)nc3)cc12` (stereo partly drawn) [Compound 569, 1-(2-((1R,3S,5R)-3-((6-bromo-3-methylpyridin-2-yl)carbamoyl)-5-methyl-2-azabicyclo[3.1.0]hexan-2-yl)-2-oxoethyl)-N-(sec-butyl)-5-(2-methylpyrimidin-5-yl)-1H-indazole-3-carboxamide], the IC50 lay within 1000 to 10000 nM.
